Test systems include SK-MEL-2; SNB-19; SK-OV-3; MOLT-4; SW-620; LOX IMVI; HCT-15; A549; SR; TK-10; 786-0; SN12C; HOP-92; EKVX; NCI-H522; SF-295; NCI-H23; NCI-H226; MDA-MB-435; HL-60.
Holding throughout (assay): DTP human tumour cell line panel, 48 h

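Cultured in 96-well plates, cells were exposed to test compound for 48 hours across five concentrations. Here, GI50 denotes the concentration required for 50% inhibition of growth.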 Activity calls are given as the source filed them. Rule as the data show it: active = GI50 up to about 1.1 µM and inactive = higher.

These results are taken from ChEMBL document CHEMBL1201862, “PubChem BioAssay data set” (2004).

Broadly, the GI50 is the concentration that inhibits growth by half.

For `Cc1ccc(NC(=O)c2ccccc2C(=O)O)cc1C`, the GI50 in the assay on SK-MEL-2, with SNB-19, with SK-OV-3, with MOLT-4, in the assay on SW-620 and with LOX IMVI was > 100 µM (inactive) throughout. Moreover, the GI50 with HCT-15 was more than 100 µM; in the assay on A549, > 100 µM (inactive); in the assay with SR, > 100 µM (inactive); in the assay on TK-10, > 100 µM (inactive); in the assay on 786-0, > 100 µM (inactive); in the assay with SN12C, > 100 µM (inactive). Further, the GI50 in the assay with HOP-92, in the assay on EKVX, in the assay with NCI-H522, in the assay on SF-295, in the assay on NCI-H23 and in the assay with NCI-H226 was > 100 µM (inactive) each time. In the assay on MDA-MB-435, the GI50 was > 100 µM (inactive).

As for `COc1cc(C2c3cc4c(cc3OC(N3CCCC3)C2C)OCO4)cc(OC)c1O` (stereo not given), the GI50 with SK-MEL-2 was 14.8 µM (inactive); in the assay on SNB-19, 13.2 µM (inactive); in the assay on SK-OV-3 it was 11.5 µM (inactive); with MOLT-4, 24.6 µM (inactive); in the assay with SW-620, 6.89 µM (inactive); in the assay with LOX IMVI, 23 µM (inactive). The 50% growth inhibitory concentration (GI50) with HCT-15 was 14 µM; in the assay on A549 it was 19 µM (inactive); in the assay on SR, 5.89 µM (inactive); with TK-10, 19.4 µM (inactive); with 786-0, 13.9 µM (inactive); in the assay on SN12C, 23.4 µM (inactive). Besides, the GI50 in the assay on HOP-92 is 19.4 µM (inactive); in the assay with EKVX, 32.5 µM (inactive); with NCI-H522, 3.61 µM (inactive); with HL-60, 4.58 µM (inactive); in the assay with SF-295 it was 3.71 µM (inactive); in the assay on NCI-H23 it was 23.4 µM (inactive). Further, the GI50 with NCI-H226 was 25.5 µM (inactive); in the assay with MDA-MB-435 it was 2.48 µM (inactive).

As for `O=C(O)C1SCCS1`, the GI50 was > 100 µM (inactive) in the assay on SNB-19; > 100 µM (inactive) in the assay on SK-OV-3; > 100 µM (inactive) with MOLT-4; > 100 µM (inactive) with SW-620; > 100 µM (inactive) in the assay with LOX IMVI; more than 100 µM in the assay on HCT-15. Further, the GI50 with A549, in the assay with SR, in the assay on TK-10, in the assay on 786-0, in the assay on SN12C and with HOP-92 was > 100 µM (inactive) in each case. In addition, the GI50 in the assay on EKVX, in the assay with HL-60, with SF-295, in the assay on NCI-H23, in the assay on NCI-H226 and in the assay with MDA-MB-435 was > 100 µM (inactive) each time.

`COc1ccc(/C=C/C2=NN(c3cccc(S(=O)(=O)O)c3)C3(C2)SCC(=O)N3c2nc3ccccc3s2)cc1` (stereo not given): the GI50 in the assay on SK-MEL-2 was 95.5 µM (inactive); in the assay on SNB-19 it was 97.1 µM (inactive); in the assay with MOLT-4, 17.5 µM (inactive); in the assay with SW-620, > 100 µM (inactive); in the assay on LOX IMVI, 33.1 µM (inactive); with HCT-15 it was 85.9 µM. Moreover, the GI50 was 90.4 µM (inactive) with A549; 19.5 µM (inactive) in the assay on SR; 86.3 µM (inactive) in the assay on TK-10; 76.7 µM (inactive) in the assay on 786-0; > 100 µM (inactive) in the assay on SN12C; 68.1 µM (inactive) with HOP-92. Moreover, the GI50 was 64.7 µM (inactive) with EKVX; 35.2 µM (inactive) in the assay with NCI-H522; > 100 µM (inactive) in the assay with HL-60; 40.1 µM (inactive) in the assay with NCI-H23; 24.6 µM (inactive) with NCI-H226; 62.4 µM (inactive) in the assay with MDA-MB-435.

With `COc1ccc(Cc2cc(Cc3ccc(OC)cc3)cc(Cc3ccc(OC)cc3)c2)cc1`, the GI50 with SK-MEL-2, in the assay on SNB-19, in the assay on SK-OV-3, in the assay with MOLT-4, with SW-620 and in the assay with LOX IMVI was > 100 µM (inactive) each time. The GI50 was more than 100 µM with HCT-15; > 100 µM (inactive) in the assay with A549; 89.5 µM (inactive) in the assay on SR; > 100 µM (inactive) in the assay on TK-10; > 100 µM (inactive) in the assay on 786-0; > 100 µM (inactive) in the assay on SN12C. Further, the GI50 in the assay on HOP-92, in the assay with EKVX, in the assay with NCI-H522, in the assay with HL-60, in the assay with SF-295 and with NCI-H226 was > 100 µM (inactive) throughout. Moreover, the GI50 in the assay with MDA-MB-435 is 13.6 µM (inactive).

Turning to `COC(=O)c1ccc(/C=C/c2cc(O)ccc2O)cc1`, the GI50 is 14.3 µM (inactive) with SK-MEL-2; 33.3 µM (inactive) in the assay with SNB-19; 0.255 µM (active) in the assay on MOLT-4; 3.69 µM (inactive) in the assay with SW-620; 2.24 µM (inactive) with LOX IMVI; 3.01 µM in the assay on HCT-15. For the same compound, the GI50 with A549 was 19.8 µM (inactive); with SR, 0.787 µM (active); in the assay on TK-10, 8.43 µM (inactive); with 786-0 it was 3.05 µM (inactive); in the assay with SN12C it was 2.38 µM (inactive); with HOP-92, 2.44 µM (inactive). The GI50 in the assay with EKVX is 2.37 µM (inactive); in the assay with NCI-H522, 0.194 µM (active); in the assay with HL-60, 0.269 µM (active); in the assay on SF-295 it was 13.1 µM (inactive); in the assay with NCI-H23, 4.39 µM (inactive); with NCI-H226, 12.6 µM (inactive). Further, the GI50 in the assay with MDA-MB-435 is 3.21 µM (inactive).

Regarding `Cc1ccccc1/N=C/N(C)C`, the GI50 was 15 µM (inactive) with SK-MEL-2; 56.8 µM (inactive) in the assay on SNB-19; > 100 µM (inactive) in the assay with SK-OV-3; 29.9 µM (inactive) with MOLT-4; 23.8 µM (inactive) with LOX IMVI; more than 100 µM in the assay on HCT-15. For the same compound, the GI50 in the assay with A549 is 39.6 µM (inactive); in the assay with SR, 11.4 µM (inactive); in the assay on TK-10, 54.6 µM (inactive); in the assay on 786-0, 70.3 µM (inactive); with SN12C, 66.5 µM (inactive); in the assay with HOP-92 it was 48.3 µM (inactive). The GI50 with EKVX was 35.3 µM (inactive); in the assay with NCI-H522, 21.2 µM (inactive); in the assay with HL-60, 14.1 µM (inactive); with SF-295 it was 39.5 µM (inactive); in the assay on NCI-H23 it was 19.2 µM (inactive); in the assay with NCI-H226 it was 48.4 µM (inactive). Also, the GI50 with MDA-MB-435 was 42.1 µM (inactive).

Turning to `CC1(C)CN=C(c2ccc3ccccc3c2O)N1`, the GI50 with SK-MEL-2 is > 100 µM (inactive); with SNB-19, > 100 µM (inactive); with MOLT-4, > 100 µM (inactive); with SW-620, > 100 µM (inactive); in the assay with LOX IMVI, > 100 µM (inactive); with HCT-15, more than 100 µM. Besides, the GI50 in the assay on A549 is 23.6 µM (inactive); in the assay with SR, > 100 µM (inactive); with TK-10, > 100 µM (inactive); in the assay with 786-0, > 100 µM (inactive); with SN12C, > 100 µM (inactive); in the assay with HOP-92 it was > 100 µM (inactive). Besides, the GI50 with EKVX is > 100 µM (inactive); in the assay on HL-60 it was > 100 µM (inactive); with SF-295, 2.27 µM (inactive); with NCI-H23, > 100 µM (inactive); with MDA-MB-435, > 100 µM (inactive).

For `CCCCCCCCCCCCCCCCCC(=O)OCC(COC1OC(COP(=O)(O)O)C(O)C(O)C1O)OC(=O)CCCCCCCCCCCCCCCCC` (stereo not given), the GI50 with SNB-19 was 8 µM (inactive); with SK-OV-3, 8 µM (inactive); with MOLT-4, 7.5 µM (inactive); in the assay with SW-620 it was 10.3 µM (inactive); with LOX IMVI it was 9.06 µM (inactive); in the assay on HCT-15, 7.52 µM. The GI50 is 7.46 µM (inactive) in the assay on A549; 0.0227 µM (active) with SR; 10.4 µM (inactive) in the assay on TK-10; 7.94 µM (inactive) in the assay with 786-0; 7 µM (inactive) in the assay with SN12C; 4.14 µM (inactive) with HOP-92. In addition, the GI50 in the assay with EKVX was 7.74 µM (inactive); with HL-60, 12.4 µM (inactive); in the assay on SF-295, 4.02 µM (inactive); in the assay on NCI-H23 it was 7.78 µM (inactive); in the assay on NCI-H226, 4.21 µM (inactive); in the assay with MDA-MB-435, 9.71 µM (inactive).

In the case of `O=C1c2c(Br)sc(Br)c2[C@H]2NC(=S)O[C@@H]12`, the GI50 in the assay with SK-MEL-2 is 17.4 µM (inactive); in the assay on SNB-19, 21.7 µM (inactive); in the assay with SK-OV-3, 18.7 µM (inactive); with MOLT-4 it was 1.32 µM (inactive); in the assay on SW-620 it was 3.18 µM (inactive); with LOX IMVI, 13.9 µM (inactive). Also, the 50% growth inhibitory concentration (GI50) with HCT-15 is 4.18 µM; in the assay with A549, 20.8 µM (inactive); in the assay on SR, 2.41 µM (inactive); in the assay on TK-10, 29.6 µM (inactive); in the assay on 786-0, 14.2 µM (inactive); in the assay on SN12C, 17.6 µM (inactive). For the same compound, the GI50 is 18 µM (inactive) in the assay on HOP-92; 20.4 µM (inactive) with EKVX; 1.86 µM (inactive) with NCI-H522; 20.6 µM (inactive) in the assay on SF-295; 14.8 µM (inactive) in the assay on NCI-H23; 20.7 µM (inactive) in the assay with NCI-H226. For the same compound, the GI50 in the assay on MDA-MB-435 was 13.8 µM (inactive).

On to `Cc1ccc(Nc2cc(=O)[nH]c(=O)[nH]2)cc1CS`, for which the GI50 with SK-MEL-2, in the assay on SNB-19, in the assay with SK-OV-3, in the assay on MOLT-4, in the assay with SW-620 and in the assay with LOX IMVI was > 100 µM (inactive) throughout. Besides, the GI50 was more than 100 µM with HCT-15; > 100 µM (inactive) in the assay on A549; > 100 µM (inactive) with SR; > 100 µM (inactive) in the assay with TK-10; > 100 µM (inactive) with 786-0; > 100 µM (inactive) in the assay with SN12C. Also, the GI50 with HOP-92, in the assay with EKVX, with NCI-H522, in the assay with SF-295, in the assay with NCI-H23 and in the assay with NCI-H226 was > 100 µM (inactive) in each case. For the same compound, in the assay with MDA-MB-435, the GI50 is > 100 µM (inactive).
